Data: patent US5470852A, “Tetrahydroprotoberberine quaternary ammonium compounds useful in for treating arrhythmia” (priority 1991, dated 1995)
Read-outs that look alike come from different tables or passages of the source.

Tested on: anaesthetized rats
Details: for Arrhythmic scores / Lethal risk / Antiarrhythmic effect: X ± SD; for Incidence of VF: n=10; for Death / animals with VF / animals without VF: of n=10

With `COc1ccc2c(c1OC)C[N+]1(Cc3ccc(Cl)cc3)CCc3cc4c(cc3C1C2)OCO4` (stereo not shown) [Compound I13, 7-(4-chlorobenzyl)-5,8,13,13a-tetrahydroberberine chloride] the “anti-arrhythmic activity relative to lidocaine” value (i.v.) was 10 times, the “inhibition of arrhythmias and VF induced by left coronary artery ligation” value (i.v. or p.o.) was “significantly inhibited” and the Arrhythmic scores (iv 0.1 mg/kg) was 2.4 ± 2.2. The “Lethal risk” value (iv 0.1 mg/kg) was 75 ± 30, the Antiarrhythmic effect (iv 0.1 mg/kg, coronary occlusion 5 min) was 0.25 ± 0.26 and the Antiarrhythmic effect (iv 0.1 mg/kg, coronary occlusion 10 min) was 1.7 ± 2.1. The “Incidence of VF” value (iv 0.1 mg/kg) was 30%, the Death (iv 0.1 mg/kg) was 3 and the “animals with VF” value (iv 0.1 mg/kg) was 3. The “animals without VF” value (iv 0.1 mg/kg) was 4, the Antiarrhythmic effect (iv 0.1 mg/kg, reperfusion 0.17 min) was 2.2 ± 2.5 and the Antiarrhythmic effect (iv 0.1 mg/kg, reperfusion 0.33 min) was 2.1 ± 2.1. The Antiarrhythmic effect (iv 0.1 mg/kg, reperfusion 0.5 min) was 2.4 ± 2.2, the Antiarrhythmic effect (iv 0.1 mg/kg, reperfusion 1 min) was 2.3 ± 2.6 and the Antiarrhythmic effect (iv 0.1 mg/kg, reperfusion 2 min) was 1.6 ± 2.1. The Antiarrhythmic effect (iv 0.1 mg/kg, reperfusion 3 min) was 1.6 ± 2.1, the Antiarrhythmic effect (iv 0.1 mg/kg, reperfusion 5 min) was 1.6 ± 2.1 and the Antiarrhythmic effect (iv 0.1 mg/kg, reperfusion 6 min) was 2.4 ± 3.4. The Antiarrhythmic effect (iv 0.1 mg/kg, reperfusion 7 min) was 0.20 ± 0.26, the Antiarrhythmic effect (iv 0.1 mg/kg, reperfusion 10 min) was 0.42 ± 0.19 and the Antiarrhythmic effect (iv 0.1 mg/kg, reperfusion 15 min) was 0.42 ± 0.19. For the same molecule, the Antiarrhythmic effect (iv 0.1 mg/kg, reperfusion 25 min) was 0.43 ± 0.19, the Arrhythmic scores (iv 0.3 mg/kg) was 1.2 ± 1.7 and the “Lethal risk” value (iv 0.3 mg/kg) was 57 ± 26. For the same molecule, the Antiarrhythmic effect (iv 0.3 mg/kg, coronary occlusion 5 min) was 0.6 ± 1.3, the Antiarrhythmic effect (iv 0.3 mg/kg, coronary occlusion 10 min) was 0.9 ± 1.9 and the “Incidence of VF” value (iv 0.3 mg/kg) was 20%. For the same molecule, the Death (iv 0.3 mg/kg) was 1, the “animals with VF” value (iv 0.3 mg/kg) was 2 and the “animals without VF” value (iv 0.3 mg/kg) was 7. For the same molecule, the Antiarrhythmic effect (iv 0.3 mg/kg, reperfusion 0.17 min) was 0.9 ± 1.3, the Antiarrhythmic effect (iv 0.3 mg/kg, reperfusion 0.33 min) was 1.3 ± 2.0 and the Antiarrhythmic effect (iv 0.3 mg/kg, reperfusion 0.5 min) was 1.2 ± 1.7. For the same molecule, the Antiarrhythmic effect (iv 0.3 mg/kg, reperfusion 1 min) was 0.8 ± 1.8, the Antiarrhythmic effect (iv 0.3 mg/kg, reperfusion 2 min) was 0.8 ± 1.8 and the Antiarrhythmic effect (iv 0.3 mg/kg, reperfusion 3 min) was 0.22 ± 0.26. It also gave an Antiarrhythmic effect (iv 0.3 mg/kg, reperfusion 5 min) of 0.6 ± 1.2, an Antiarrhythmic effect (iv 0.3 mg/kg, reperfusion 6 min) of 0.8 ± 1.8 and an Antiarrhythmic effect (iv 0.3 mg/kg, reperfusion 7 min) of 0.8 ± 1.8. For the same molecule, the Antiarrhythmic effect (iv 0.3 mg/kg, reperfusion 10 min) was 0.8 ± 1.8, the Antiarrhythmic effect (iv 0.3 mg/kg, reperfusion 15 min) was 1.0 ± 2.2 and the Antiarrhythmic effect (iv 0.3 mg/kg, reperfusion 25 min) was 0.2 ± 0.4. The Arrhythmic scores (iv 1.0 mg/kg) was 1.3 ± 1.7, the “Lethal risk” value (iv 1.0 mg/kg) was 41 ± 0 and the Antiarrhythmic effect (iv 1.0 mg/kg, coronary occlusion 5 min) was 0.4 ± 0.2. The Antiarrhythmic effect (iv 1.0 mg/kg, coronary occlusion 10 min) was 0.4 ± 0.2, the “Incidence of VF” value (iv 1.0 mg/kg) was 0% and the Death (iv 1.0 mg/kg) was 0. For the same molecule, the “animals with VF” value (iv 1.0 mg/kg) was 0, the “animals without VF” value (iv 1.0 mg/kg) was 10 and the Antiarrhythmic effect (iv 1.0 mg/kg, reperfusion 0.17 min) was 1.4 ± 1.4. For the same molecule, the Antiarrhythmic effect (iv 1.0 mg/kg, reperfusion 0.33 min) was 3.2 ± 2.0, the Antiarrhythmic effect (iv 1.0 mg/kg, reperfusion 0.5 min) was 1.6 ± 1.6 and the Antiarrhythmic effect (iv 1.0 mg/kg, reperfusion 2 min) was 0.20 ± 0.26. For the same molecule, the Antiarrhythmic effect (iv 1.0 mg/kg, reperfusion 3 min) was 0.20 ± 0.26, the Antiarrhythmic effect (iv 1.0 mg/kg, reperfusion 5 min) was 0.20 ± 0.26 and the Antiarrhythmic effect (iv 1.0 mg/kg, reperfusion 6 min) was 0.20 ± 0.26. For the same molecule, the Antiarrhythmic effect (iv 1.0 mg/kg, reperfusion 7 min) was 0.20 ± 0.26, the Antiarrhythmic effect (iv 1.0 mg/kg, reperfusion 10 min) was 0.20 ± 0.26 and the Antiarrhythmic effect (iv 1.0 mg/kg, reperfusion 15 min) was 0.10 ± 0.21. For the same molecule, the Antiarrhythmic effect (iv 1.0 mg/kg, reperfusion 25 min) was 0.10 ± 0.21, the “potency relative to propafenon” value (p.o.) was “considerably more potent” and the Arrhythmic scores (po 10 mg/kg) was 2.7 ± 1.9. The Antiarrhythmic effect (po 10 mg/kg, coronary occlusion 5 min) was 0.4 ± 0.8, the Antiarrhythmic effect (po 10 mg/kg, coronary occlusion 10 min) was 0.50 ± 0.16 and the “Incidence of VF” value (po 10 mg/kg) was 20%. For the same molecule, the “animals with VF” value (po 10 mg/kg) was 2, the “animals without VF” value (po 10 mg/kg) was 8 and the Antiarrhythmic effect (po 10 mg/kg, reperfusion 0.17 min) was 2.6 ± 1.8. For the same molecule, the Antiarrhythmic effect (po 10 mg/kg, reperfusion 0.33 min) was 2.7 ± 1.9, the Antiarrhythmic effect (po 10 mg/kg, reperfusion 0.5 min) was 1.9 ± 1.7 and the Antiarrhythmic effect (po 10 mg/kg, reperfusion 1 min) was 1.9 ± 1.6. For the same molecule, the Antiarrhythmic effect (po 10 mg/kg, reperfusion 1.5 min) was 1.4 ± 1.3, the Antiarrhythmic effect (po 10 mg/kg, reperfusion 3 min) was 1.1 ± 1.5 and the Antiarrhythmic effect (po 10 mg/kg, reperfusion 4 min) was 1.2 ± 1.4. It also gave an Antiarrhythmic effect (po 10 mg/kg, reperfusion 5 min) of 1.0 ± 1.2, an Antiarrhythmic effect (po 10 mg/kg, reperfusion 6 min) of 0.8 ± 1.1 and an Antiarrhythmic effect (po 10 mg/kg, reperfusion 7 min) of 0.8 ± 1.1. For the same molecule, the Antiarrhythmic effect (po 10 mg/kg, reperfusion 15 min) was 0.8 ± 1.1, the Antiarrhythmic effect (po 10 mg/kg, reperfusion 25 min) was 0.8 ± 1.1 and the Arrhythmic scores (po 30 mg/kg) was 3.2 ± 2.2. For the same molecule, the “Lethal risk” value (po 30 mg/kg) was 57 ± 26.
